Measured values from BindingDB's records for doi:10.1074/jbc.M111.290619 (Washington University, 2011).
pIC50, pKd: −log10 of the molar value. Values joined by “and” are separate entries in the source; they are usually repeats but may differ in a detail not shown here. Identical values can stand only once.

How the values were obtained:
[1] = target: T1, Phosphoethanolamine N-methyltransferase 1 (Caenorhabditis elegans, UniProt Q86NB3); assay: Radiochemical Assay; conditions: pH 8; 25 °C
T1 sequence (Q86NB3 whole entry): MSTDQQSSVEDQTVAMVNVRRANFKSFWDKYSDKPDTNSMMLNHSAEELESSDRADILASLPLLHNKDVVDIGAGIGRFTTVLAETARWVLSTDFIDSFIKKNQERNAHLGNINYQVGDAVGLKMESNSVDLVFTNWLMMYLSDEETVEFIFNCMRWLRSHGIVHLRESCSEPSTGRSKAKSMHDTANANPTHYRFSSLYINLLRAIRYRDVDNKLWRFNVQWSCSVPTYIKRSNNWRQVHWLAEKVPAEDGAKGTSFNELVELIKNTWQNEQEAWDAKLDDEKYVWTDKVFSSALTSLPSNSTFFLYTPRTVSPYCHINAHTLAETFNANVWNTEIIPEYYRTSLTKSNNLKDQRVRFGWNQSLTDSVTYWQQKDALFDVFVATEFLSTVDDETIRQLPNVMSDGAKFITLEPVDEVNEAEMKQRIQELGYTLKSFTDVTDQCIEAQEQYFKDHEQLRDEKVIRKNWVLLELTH
Excerpt: (§1) A radiochemical assay was used to measure enzymatic activity.

[2] = target: T2, Phosphoethanolamine N-methyltransferase 2 (Caenorhabditis elegans, UniProt Q22993); assay: Radiochemical Assay; conditions: pH 8; 25 °C
Excerpt: as §1

[3] = target: T1, Phosphoethanolamine N-methyltransferase 1; assay: Calorimetric (ITC) Assay; conditions: pH 7.5
Experimental: (§2) For standard ITC analysis of ligand binding, proteins were dialyzed overnight in 25 mm Hepes (pH 7.5), 100 mm NaCl, 5 mm -mercaptoethanol, and 5% glycerol at 4 °C. Ligands (i.e. AdoMet, AdoCys, pEA, and pCho) were prepared in the same buffer. AdoMet and AdoCys concentrations were determined spectrophotometrically (A260 nm; = 15,400 m 1 cm 1) (19). ITC experiments were performed using a VP-ITC calorimeter (Microcal, Inc.). Injections (10 ul) of ligand were added to a sample solution containing protein using a computer-controlled 250-ul microsyringe at intervals of 5 6 min.

[4] = target: T2, Phosphoethanolamine N-methyltransferase 2; assay: Calorimetric (ITC) Assay; conditions: pH 7.5
Experimental: as §2

T2 sequence (Q22993 whole entry): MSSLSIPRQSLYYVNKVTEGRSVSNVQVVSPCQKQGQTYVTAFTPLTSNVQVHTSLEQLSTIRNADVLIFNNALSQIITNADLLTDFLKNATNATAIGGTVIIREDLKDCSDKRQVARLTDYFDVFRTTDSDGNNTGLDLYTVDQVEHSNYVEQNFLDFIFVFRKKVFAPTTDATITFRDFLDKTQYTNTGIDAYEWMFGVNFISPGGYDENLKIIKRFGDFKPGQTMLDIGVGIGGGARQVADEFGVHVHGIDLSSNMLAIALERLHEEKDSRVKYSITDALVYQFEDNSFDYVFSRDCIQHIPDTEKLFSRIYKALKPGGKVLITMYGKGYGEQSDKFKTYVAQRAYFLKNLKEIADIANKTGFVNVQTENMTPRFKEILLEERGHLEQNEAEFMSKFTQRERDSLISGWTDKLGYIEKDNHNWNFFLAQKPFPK

SMILES	pIC50 [1]	pIC50 [2]	pKd ([3]; 4 °C)	pKd ([3]; 5 °C)	pKd ([3]; 10 °C)	pKd ([3]; 15 °C)	pKd ([3]; 20 °C)	pKd ([3]; 25 °C)	further results
Nc1c2c(nc3ccccc13)CCCC2	1.63	2.46	–	–	–	–	–	–	–
C[S+](CC[C@H](N)C(=O)[O-])C[C@H]1O[C@@H](n2cnc3c(N)ncnc32)[C@H](O)[C@@H]1O (stereo partly drawn) [(2S)-2-amino-4-({[(2S,3S,4R,5R)-5-(6-amino-9H-purin-9-yl)-3,4-dihydroxyoxolan-2-yl]methyl}(methyl)sulfanylium)butanoate]	–	–	4.33 and 4.72 and 4.97 and 5.24	5.21	5.09	4.94	4.78	4.57	–
Nc1ncnc2c1ncn2[C@H]1O[C@@H](CSCC[C@@H](N)C(=O)O)[C@H](O)[C@@H]1O [AdoCys]	–	–	5.54 and 5.66 and 5.89 and 6.05	6.15	6.10	5.96	5.80	5.60	pKd ([4]; 4 °C): 5.07 and 5.22 and 5.03 and 5.21; pKd ([4]; 5 °C): 5.70; pKd ([4]; 10 °C): 5.60; pKd ([4]; 15 °C): 5.52; pKd ([4]; 20 °C): 5.38; pKd ([4]; 25 °C): 5.27
CCN(CC)Cc1cc(Nc2ccnc3cc(Cl)ccc23)ccc1O [Amodiaquin]	2.47	2.51	–	–	–	–	–	–	–
Nc1ncnc2c1ncn2[C@@H]1O[C@H](C[C@@H](N)CC[C@H](N)C(=O)O)[C@@H](O)[C@H]1O [Sinefungin]	4.47	4.04	–	–	–	–	–	–	–
CCCCCCCCCCCCCCCCOP(=O)([O-])OCC[N+](C)(C)C [n-hexadecylphosphocholine]	3.90	4.90	–	–	–	–	–	–	–
